ChEMBL document CHEMBL1201862, “PubChem BioAssay data set” (2004)
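Five compound concentrations were applied to cells in 96-well plates for 48 hours; endpoints were derived by simple linear interpolation of the resulting dose-response curve. GI50: concentration for 50% inhibition of growth.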 The source made the active and inactive calls. Rule as the data show it: active = GI50 up to about 1.1 µM and inactive = higher.

How the values were obtained:
Test in all cases: DTP human tumour cell line panel, 48 h
SW-620 = test system: SW-620
SK-MEL-28 = test system: SK-MEL-28
TK-10 = test system: TK-10
NCI-H522 = test system: NCI-H522
PC-3 = test system: PC-3
ACHN = test system: ACHN
KM12 = test system: KM12
RPMI-8226 = test system: RPMI-8226
SR = test system: SR
SF-268 = test system: SF-268
OVCAR-5 = test system: OVCAR-5
SK-MEL-2 = test system: SK-MEL-2
SF-539 = test system: SF-539
MDA-MB-435 = test system: MDA-MB-435
MDA-MB-231 = test system: MDA-MB-231
UACC-257 = test system: UACC-257
COLO 205 = test system: COLO 205
SNB-19 = test system: SNB-19
UACC-62 = test system: UACC-62
Malme-3M = test system: Malme-3M

Measured: GI50

O=C(c1cc2c(c3ccccc13)NCCN=C2C(F)(F)F)C(F)(F)F
inactive: SW-620 35.2 µM | SK-MEL-28 18.9 µM | TK-10 24.9 µM | NCI-H522 20.6 µM | PC-3 14.6 µM | ACHN 22.8 µM | KM12 19.4 µM | RPMI-8226 6.95 µM | SR 3.94 µM | SF-268 24 µM | OVCAR-5 65.3 µM | SK-MEL-2 18.7 µM | SF-539 20.1 µM | MDA-MB-435 34.2 µM | MDA-MB-231 20.2 µM | UACC-257 19.3 µM

CCCCCCCCCCCCCCCCCCNc1nc(=O)n(C2CC(OP(=O)(O)OCC3OC(n4cc(F)c(=O)[nH]c4=O)CC3O)C(CO)O2)cc1F (stereo not given)
inactive: SW-620 18.8 µM | SK-MEL-28 27.1 µM | TK-10 70.5 µM | NCI-H522 30.3 µM | PC-3 22.6 µM | ACHN 11.2 µM | KM12 11.2 µM | RPMI-8226 11.2 µM | SR 4.86 µM | COLO 205 20.7 µM | SNB-19 12.1 µM | SF-268 12.4 µM | OVCAR-5 54.2 µM | SK-MEL-2 27.5 µM | SF-539 6.67 µM | MDA-MB-435 75.2 µM | UACC-62 20.5 µM | MDA-MB-231 > 100 µM | UACC-257 61 µM

CC(C)CNP(=O)(NCC(C)C)Oc1ccc(CC(NC(=O)OCc2ccccc2)C(=O)OCc2ccccc2)cc1 (stereo not given)
inactive: SW-620 20.4 µM | SK-MEL-28 15.4 µM | TK-10 31.4 µM | NCI-H522 13.4 µM | PC-3 17.1 µM | ACHN 16.9 µM | KM12 18.1 µM | RPMI-8226 14.5 µM | SR 6.17 µM | COLO 205 19.2 µM | SNB-19 25.2 µM | SF-268 17.6 µM | OVCAR-5 > 100 µM | Malme-3M 19.1 µM | SK-MEL-2 18.5 µM | MDA-MB-435 10 µM | UACC-62 18.5 µM | MDA-MB-231 17.7 µM | UACC-257 24.8 µM

c1ccc(COc2nc3cc(C45CC6CC(CC(C6)C4)C5)ccc3[nH]2)cc1
inactive: SW-620 21.4 µM | SK-MEL-28 17.1 µM | TK-10 4.65 µM | NCI-H522 3.42 µM | PC-3 9.06 µM | ACHN 14.6 µM | KM12 15.5 µM | RPMI-8226 5.07 µM | SR > 100 µM | COLO 205 4.01 µM | SNB-19 24.8 µM | SF-268 31.3 µM | OVCAR-5 41 µM | Malme-3M 9.16 µM | SK-MEL-2 11.2 µM | MDA-MB-435 8.95 µM | UACC-62 7.13 µM | MDA-MB-231 21.8 µM | UACC-257 2.92 µM

COC1=CC(=O)N(C)C(O)C1(C#N)OC1OC(CO)C(O)C(O)C1O (stereo not given)
inactive: SW-620 > 100 µM | SK-MEL-28 > 100 µM | TK-10 > 100 µM | NCI-H522 > 100 µM | PC-3 > 100 µM | ACHN > 100 µM | KM12 > 100 µM | RPMI-8226 > 100 µM | SR > 100 µM | COLO 205 > 100 µM | SNB-19 > 100 µM | SF-268 > 100 µM | OVCAR-5 > 100 µM | SK-MEL-2 > 100 µM | SF-539 > 100 µM | MDA-MB-435 > 100 µM | UACC-62 > 100 µM | MDA-MB-231 > 100 µM | UACC-257 > 100 µM

COC(=O)N1N=C(c2ccccc2)C1c1ccccc1 (stereo not given)
inactive: SW-620 48.6 µM | SK-MEL-28 39.7 µM | TK-10 70.1 µM | PC-3 26.9 µM | KM12 47.4 µM | RPMI-8226 26.7 µM | SR 31.9 µM | COLO 205 27 µM | SNB-19 29.5 µM | SF-268 62.7 µM | OVCAR-5 78.5 µM | Malme-3M 40.7 µM | SK-MEL-2 34.5 µM | SF-539 22.9 µM | MDA-MB-435 33.7 µM | UACC-62 22 µM | MDA-MB-231 24.6 µM | UACC-257 24.5 µM

CC(C)(C)c1cc(-c2cc(C(C)(C)C)n(-c3ccccc3)n2)nn1-c1ccccc1
inactive: SW-620 8.57 µM | SK-MEL-28 > 100 µM | TK-10 > 100 µM | NCI-H522 > 100 µM | PC-3 65.6 µM | ACHN 23.2 µM | KM12 84.5 µM | RPMI-8226 > 100 µM | SR > 100 µM | COLO 205 48.6 µM | SF-268 > 100 µM | OVCAR-5 > 100 µM | SK-MEL-2 > 100 µM | SF-539 > 100 µM | MDA-MB-435 49.8 µM | UACC-62 11.6 µM | MDA-MB-231 > 100 µM | UACC-257 > 100 µM

CCOC(=O)CNC(=O)C(CSC(=O)N(O)c1ccc(Cl)cc1)NC(=O)CCC(N)C(=O)OCC (stereo not given)
inactive: SW-620 14.8 µM | SK-MEL-28 24.8 µM | PC-3 > 50 µM | ACHN > 50 µM | KM12 12.2 µM | RPMI-8226 12.1 µM | SR 43.5 µM | COLO 205 > 50 µM | SNB-19 9.53 µM | SF-268 1.88 µM | OVCAR-5 > 50 µM | SK-MEL-2 > 50 µM | SF-539 > 50 µM | MDA-MB-435 30.1 µM | UACC-62 > 50 µM | MDA-MB-231 21 µM | UACC-257 > 50 µM
